We go through one compound from US20230118142A1, “AGENTS FOR USE IN THE TREATMENT OF TISSUE DAMAGE” (UCL BUSINESS LTD, priority 2020, published 2023).

Assay [1] deals with T1, CRP (Homo sapiens, UniProt P02741).
T1 sequence (P02741 19-224): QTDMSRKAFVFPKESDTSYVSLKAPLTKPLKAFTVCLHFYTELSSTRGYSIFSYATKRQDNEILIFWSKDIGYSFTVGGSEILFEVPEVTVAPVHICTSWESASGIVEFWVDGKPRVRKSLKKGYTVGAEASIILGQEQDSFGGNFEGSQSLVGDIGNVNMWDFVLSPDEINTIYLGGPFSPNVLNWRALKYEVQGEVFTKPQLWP
Put plainly: In vivo clearance of preformed CRP/ligand complexes in mice. Also noted: from tissue. The conditions noted are these: complexes formed in vitro, injected intravenously. The protocol: (i) CRP at 1 mg/ml in azide-free TC buffer (containing, in some experiments, ˜10^6 cpm/ml of ^125I-CRP) was incubated with a 5-fold molar excess of ligand. A control (ligand-free) sample was also prepared. Cross linking of CRP was confirmed by SEC in TC buffer of a small sample of complex.
(ii) Two groups of eight wild-type C57BL/6 mice (male; 23-27 weeks old) were used.
The complex or control (200 μl, 200 μg CRP) was injected into the tail vein of each mouse. A single timed collection of blood was taken from the tail vain of each mouse; a second terminal sample was also collected. This yielded 4 samples each at 30, 60, 120 and 180 min for control and treated groups.
(iii) Blood samples were weighed and CRP measured in the Roche assay and, in some cases by electroimmunoassay (4, 13). ^125I-CRP was measured by gamma counting (Perkin Elmer Wizard; protocol #1).
Complexes were prepared in vitro using ^125I-labelled CRP and an excess of ligand, and the mixture was then injected intravenously into mice. Clearance of CRP was monitored by counting of the ^125I-CRP tracer and stable CRP-ligand complexes were detected by lack of CRP detection in the Roche assay of the plasma samples. The formation of CRP/ligand complexes was confirmed by size exclusion chromatography before use in each in vivo experiment.

The target of assay [2] is T1, CRP. Description: Stability of pre-formed CRP/ligand complexes in vitro (mouse plasma, whole blood, shear forces, dialysis). Also noted: from tissue. Here is the method:
Pre-formed complexes of CRP/Pk-023 (with 5-fold molar excess of ligand over CRP pentamer), or CRP alone, were co-incubated, unstirred, in TC buffer (control), fresh mouse heparinised plasma or fresh heparinised whole mouse blood at 37° C. for up to 3 hours. CRP concentrations in plasma were then measured by Roche immunoassay. […] On addition of EDTA to dissociate CRP ligand binding, Roche CRP concentrations in all CRP/Pk-023 samples recovered to ˜70% of control values showing that the protein was still present and immunoreactive.
To determine whether shear forces might have an effect on stability, pre-formed CRP/Pk-023 complexes prepared with either a 2.5- or 5-fold molar excess of ligand were added to heparinised mouse plasma and stirred rapidly at room temperature for 3 h.
CRP/Pk-023 complexes formed at 5-fold ligand excess were stable during exhaustive dialysis against TC buffer for up to 96 h at room temperature, as shown by the Roche CRP assay values. After 30 h, ˜8% of the complex had dissociated, with a further 2.5% dissociation at 96 h. Similarly, CRP/Pk-023 complexes pre-formed in serum were stable during dialysis against TC buffer for 24 h at room temperature with shear forces produced by a magnetic stir bar inserted into the dialysis tubing. ^125I-CRP was included to correct for dilution account for any effects of dilution.

For assay [3], the target named is T1, CRP. Description: In vivo clearance of CRP/ligand complexes generated in vivo in mice. Also noted: The final concentrations were 0.73 μM native pentameric CRP; from tissue. Particulars: i.v. bolus 18 h after s.c. CRP (1 mg). Here is the method: (i) Two groups of 8 wild-type C57BL/6 mice (male; 23-27 weeks old) were used: group 1 (control) and group 2 (treated).
(ii) Both groups of animals were given 200 μl of human CRP (5 mg/ml in azide-free TC buffer) subcutaneously on day 1.
(iii) On day 2 (+18 h), control animals were given a 200 μl intravenous bolus of TC buffer. Treated animals were given a 200 μl iv bolus of ligand (prepared at 5 mg/ml in TC buffer).
(iv) One timed blood sample and a terminal blood sample were collected from each mouse into heparinised tubes and weighed. This generated data in quadruplicate at 4 time points, normally 30, 60, 120 and 360 minutes.
(v) ^125I radiolabel was measured (Perkin Elmer Wizard; protocol #1) in whole blood to quantify total CRP. In some cases, electroimmunoassay as above was also used to determine total CRP concentration.
(vi) Plasma was prepared and free CRP determined by Roche immunoassay.
Subcutaneous injection of human CRP provided circulating CRP concentrations with which to test for effects of our ligands in vivo. (Table 4).

Each structure is given as a SMILES string.

As to `O=P(O)(OCCCCCCCCOP(=O)(O)O[C@@H]1CN2CCC1CC2)O[C@@H]1CN2CCC1CC2` [Pk-023, [(3S)-1-azabicyclo[2.2.2]octan-3-yloxy]({[8-({[(3S)-1-azabicyclo[2.2.2]octan-3-yloxy](hydroxy)phosphoryl}oxy)octyl]oxy})phosphinic acid], the “Time Roche CRP value suppressed (persistence of preformed complex in circulation)” value at CRP [1] is “suppressed at 15 min but was had returned to control value at 60 min”. On CRP [2] (2.5- or 5-fold ligand excess, heparinised mouse plasma, stirred rapidly, room temperature, 3 h), the “Stability of complex to shear forces (Roche CRP reactivity)” value is given as “stable throughout the experiment”. Moreover, at CRP [2] (5-fold ligand excess, room temperature, after 30 h), the “Complex dissociated during dialysis against TC buffer” value is approximately 8%. Moreover, on CRP [2] (5-fold ligand excess, TC buffer, mouse heparinised plasma or whole mouse blood, 37° C., up to 3 hours), the “Stability of pre-formed CRP/ligand complex (Roche CRP)” value is listed as “stable throughout the experiment”. Also, the “Roche CRP concentration recovered on addition of EDTA” value on CRP [2] (after incubation in mouse plasma/whole blood) is on record as ~70 % of control values. In addition, the “Further dissociation of complex during dialysis” value on CRP [2] (at 96 h) was 2.5%. Also, the “Stability of complexes pre-formed in serum during dialysis” value on CRP [2] (dialysis against TC buffer 24 h, room temperature, with shear forces) is on record as “stable”. Besides, the “Effect on detection of circulating CRP in the Roche assay” value at CRP [3] is listed as “the same as BPC8”.
